# Data reported in patent US20030235646A1, “Method for improving quality of meat by supplementing pig diets and concentrates used therefor” (Lonza Inc., priority 2002, published 2003).
# Tests used:
# [1] = tested on: pork; assay: Follow-up studies of pork drip loss (Example 3, FIGS. 1 and 2); assay type: in vivo, pigs
# Method: Drip loss is a measurement of the ability of the sample to retain water. In this procedure, a standardized amount of lean pork muscle, i.e., a cubic centimeter, is weighed, then suspended in an airtight container from a hook for 24 hours. The difference in weight from beginning to end of the 24 hour period represents the amount of water loss or purge. […] Changes in the pH of pork associated with postmortem metabolism affect the isoelectric point of the various amino acids in protein, and thus can affect the protein's ability to bind water.
# [2] = tested on: finishing pigs (longissimus muscle); assay: Carcass quality measures of finishing pigs fed Carnitine and Paylean (Example 1); assay type: in vivo; design: key to L*: lightness: 100 = perfect white, 0 = absolute black; key to Firmness: score 1 = soft and watery, 5 = firm and dry; Hue angle / Drip loss: unit not given here; conditions: for Temperature: 45 minutes postmortem
# Source text: Color is qualitatively measured using Minolta color-spectrometry, a process which evaluates the Hunter L* and a* values of the meat color, as well as by the saturation index and the Hue Angle value. Hunter L* value measures the lightness of the meat color and varies from 100 for perfect white to 0 for absolute black. Acceptable values for pork range from 35 to 55, with 40-45 values being most preferred by consumers.
# The other Hunter value is related to the hue of the color of the meat, with increasing a* values indicating redness and decreasing a values indicating greenness. High quality pork has Hunter a* values which range from 7.5 to 12, and consumers prefer meat with 9-9.5 scores.
# Hue Angle value measures the discoloration of meat. Increasing values indicate increasing discoloration of meat. Decreasing values indicate reduction of the discoloration. Acceptable pork Hue Angle values range from 48 to 54, and the preferred values range from 48-52.
# The final spectrographic measurement is the saturation index, which is related to the strength of the color of the meat. Acceptable pork saturation index values range from 12 to 15.5, with values from 13-14.5 being preferred. The color of the meat is of particular importance in some export markets, such as Japan, Korea, Asia and South America. […] Acceptable marbling score ranges from 1 to 3, with 2.5 being preferred.
# Drip loss is a measurement of the ability of the sample to retain water. In this procedure, a standardized amount of lean pork muscle, i.e., a cubic centimeter, is weighed, then suspended in an airtight container from a hook for 24 hours. The difference in weight from beginning to end of the 24 hour period represents the amount of water loss or purge. The greater the amount of purge loss, the poorer the pork quality. Changes in the pH of pork associated with postmortem metabolism affect the isoelectric point of the various amino acids in protein, and thus can affect the protein's ability to bind water. Pork with high drip loss is termed in the industry as “exudative” which is undesirable to both meat producers and consumers.
# The firmness of the meat is measured visually on the score from 1 to 5, 1 being soft and watery, 5 being firm and dry. The acceptable score is 2-4, and the preferred score is 2.5-3.5. This characteristic of pork has become important due to recent attempts to genetically improve the leanness of the meat. The desired leanness has been accompanied by a negative impact on the meat firmness. As a result, approximately 30% of the meat now going through packing houses has been categorized as PSE (Pale Soft Exudative meat) and is unacceptable to the consumer, thus causing economic loss to the meat producer according to the National Meat Producers Council. Thus, there is an urgent need in the art for means of improving the quality (firmness, color, marbling) and carcass characteristics of the pork.
# (§1) One hundred twenty-six gilts (initially 73.6 lb, PIC C22×L326) were allotted by weight and ancestry in a randomized complete block design to each of the nine experimental treatments arranged in a 3×3 factorial arrangement. There were two pigs/pen and seven replicates/treatment. Pigs were housed in an environmentally controlled building with 4-ft×4-ft slatted-floor pens.
# Pigs were fed a corn-soybean meal diet composed of the following:
# L-carnitine (0, 25, or 50 ppm) was added to the diet from 73.6 lb until slaughter (approximately 240 lb). Paylean (a registered trademark of Eli Lilly Company for ractopamine) treatments (0, 4.5, or 9 g/ton) were fed for the last four weeks of the experiment. The basal diet was formulated to contain 1.10% lysine from 73.6 to 164 lb, and 1.00% lysine from 164 lb until the end of the experiment. These quantities of Paylean are equivalent to 0, 5, and 10 ppm of ractopamine in the feed, respectively. […]
# [3] = tested on: pigs; assay: Growth performance of pigs (Example 1); assay type: in vivo; conditions: between 73.6 and 164 lb; P>0.64
# Method: as §1
# L-carnitine (0, 25, or 50 ppm) was added to the diet from 73.6 lb until slaughter (approximately 240 lb). Paylean (a registered trademark of Eli Lilly Company for ractopamine) treatments (0, 4.5, or 9 g/ton) were fed for the last four weeks of the experiment. The basal diet was formulated to contain 1.10% lysine from 73.6 to 164 lb, and 1.00% lysine from 164 lb until the end of the experiment. These quantities of Paylean are equivalent to 0, 5, and 10 ppm of ractopamine in the feed, respectively.
# Weights were obtained on every pig and feed disappearance was recorded every fourteen days during the experiment until the last four weeks, at which time measurements were taken weekly to calculate ADG, ADFI, and feed efficiency (F/G). One pig (closest to 240 lb) per pen was selected and slaughtered at the Kansas State University Meat Laboratory. […]
# Data were analyzed as a randomized complete block. […]
# [4] = Paylean 0 g/ton, Carnitine 25 ppm
# [5] = Paylean 0 g/ton, Carnitine 25 ppm, score 1 to 5
# [6] = Paylean 0 g/ton, Carnitine 50 ppm
# [7] = Paylean 0 g/ton, Carnitine 50 ppm, score 1 to 5
# [8] = with 4.5 or 9 g/ton Paylean, but not control pigs
# [9] = with increasing levels, linear, P<0.04
smiles,measurement,setting,value
"C[N+](C)(C)C[C@H](O)CC(=O)[O-] [Carnitine, L-carnitine]",effect on drip loss,"[1]; 50 ppm, without ractopamine, two of the three studies, FIG. 1",small positive effect
same,effect on reducing (improving) pork drip loss,"[1]; added to diet containing ractopamine, FIG. 2",greater net positive effect
same,Drip loss,[2]; [4],2.80
same,Hue angle,[2]; [4],67.38
same,L*,[2]; [4],58.01
same,PH 45 m postmortem,[2]; [4],6.55
same,PH 24 h postmortem,[2]; [4],5.79
same,Saturation index,[2]; [4],15.89
same,a*,[2]; [4],6.17
same,a*/b*,[2]; [4],0.42
same,b*,[2]; [4],14.61
same,Temperature,[2]; [4],34.83 °C
same,Firmness,[2]; [5],1.65
same,Marbling,[2]; [5],1.71
same,Visual color,[2]; [5],2.78
same,Drip loss,[2]; [6],2.07
same,Hue angle,[2]; [6],67.05
same,L*,[2]; [6],56.80
same,PH 45 m postmortem,[2]; [6],6.46
same,PH 24 h postmortem,[2]; [6],5.76
same,Saturation index,[2]; [6],16.44
same,a*,[2]; [6],6.45
same,a*/b*,[2]; [6],0.43
same,b*,[2]; [6],15.10
same,Temperature,[2]; [6],32.98 °C
same,Firmness,[2]; [7],1.93
same,Marbling,[2]; [7],1.85
same,Visual color,[2]; [7],3.14
same,visual color scores,[2]; in control pigs,did not improve
same,L* values,"[2]; increasing levels, fed with 4.5 or 9 g/ton of Paylean, longissimus muscle at 10th rib",lower L* values
same,"color, marbling, L*, a*/b* ratio and hue angle",[2]; supplementing finishing pig diets,positively improve
same,Visual color,[2]; when 4.5 or 9 g/ton of Paylean was fed,did improve
same,Hue angle values,[2]; [8],lower
same,a*/b* values,[2]; [8],lower
same,Drip loss measured 48 hours postmortem,[2]; [9],decreased
same,temperature at 45 minutes postmortem,[2]; [9],decreased
same,Ultimate (24-h) pH,"[2]; with increasing levels, linear, P<0.07",increased
same,Measurements of b*,"[2]; with increasing levels, quadratic, P<0.05",decreased
same,saturation index measured on the longissimus muscle,"[2]; with increasing levels, quadratic, P<0.07",tended to decrease
same,growth performance of pigs,[3],did not affect
